System: L929 cells
Assay type: cell-based
Protocol: A direct overlay method which has been adopted by the FDA for MPS registration was used to evaluate the cytotoxicity profile of the PQ1 formulations. In this method, previously-soaked contact lenses (in 100 ml of the solutions to simulate overnight soak) were directly overlayed on L929 cells. The cytotoxicity result was evaluated by scoring each culture under a microscope on a relative scale of 0-4.

Question: Polyquaternium-1 [30K PQ1] was tested. Which cytotoxicity score did it give?
Answer: 2

Source: US7999064B2 (Abbott Medical Optics Inc., priority 2009, dated 2011)
